Results taken from patent publication US11555010B2, “Diamide antimicrobial agents” (BROWN UNIVERSITY, priority 2019, dated 2023).
In brackets after ≈: the same amount, converted by molar mass.

Experiments:
B. subtilis = assay: Resazurin antimicrobial MIC assay; assay type: cell-based; conditions: Bacillus subtilis, read-out: Apparent MIC Value
Procedure: Bacillus subtilis ATCC 11775 was plated on agar from a 20% glycerol stock solution stored at −80′° C. Inoculated plates were then incubated at 37° C. under aerobic conditions for 16 hours. Single cultures were transferred to Nutrient Broth (NB) and cultured for 16 hours under the same conditions. […] The assay is performed in LB broth. […] Compounds are tested […] for their capacity to inhibit B. subtilis growth. In order to determine growth inhibition, a resazurin whole-cell assay was used (Kuhn, et al., 2014, Medchemcomm 5:1213-1217). Briefly, second-passage bacteria are incubated with inhibitor in a 96-well plate for four hours, then resazurin dye is added and color/fluorescence change is observed. The resazurin is naturally a blue color, but with reductive species produced during bacterial growth, it is reduced to resorufin, which appears pink. Resorufin is also fluorescent and can be measured by a plate-reader. The disclosures of each and every patent, patent application, and publication cited herein are hereby incorporated herein by reference in their entirety.

E. Coli [1] = assay: Resazurin antimicrobial MIC assay; conditions: Escherichia coli, read-out: Apparent MIC Value
E. coli [2] = conditions: cited from earlier work

Row | MIC (B. subtilis) [µM] | Structure (SMILES) | also measured
1 | 5 (≈ 2.56 µg/mL) | CC(N)C(C(=O)NC1CCCCC1)N(C(=O)c1ccccc1I)C1CCCCC1 (stereo not shown) [Example 2] | –
2 | 5 (≈ 2.49 µg/mL) | NCC(C(=O)NC1CCCCC1)N(C(=O)c1ccccc1I)C1CCCCC1 (stereo not shown) [Example 3, N-(3-amino-1-(cyclohexylamino)-1-oxopropan-2-yl)-N-cyclohexyl-2-iodobenzamide] | –
3 | – | O=C(NC1CCCCC1)C(C1CCNCC1)N(C(=O)c1ccccc1I)C1CCCCC1 (stereo not shown) [Example 6, N-cyclohexyl-N-(2-(cyclohexylamino)-2-oxo-1-(piperidin-4-yl)ethyl)-2-iodobenzamide] | MIC (E. Coli [1]): 5 µM (≈ 2.76 µg/mL)
4 | – | CC1=N[C@@H]2[C@@H](O)[C@H](O)[C@@H](CO)O[C@@H]2S1 [NAG-thiazoline] | effect on the viability of E. coli (E. coli [2]): no effect
